Source: patent publication US6699989B1, “Antiviral and antimicrobial guanidine or biguanidine derivatives” (priority 2000, dated 2004)
pIC50: −log10 of the molar value. Converted amounts (≈) assume the structure as drawn. Like-named read-outs stand apart in the source and are kept apart here.

How the values were obtained:
HIV-1 [1] = assay: PBMC assay, virus production by reverse transcriptase activity; assay type: cell-based; conditions: ROJO in PBMC
Excerpt: Method 2: PBMC Assay Method (Peripheral Blood Mononuclear cell)—Description
This assay addresses the issue of providing a rationale for further evaluation of the compound by providing evidence of in vitro anti-HIV activity against a low passage clinical strain of HIV-1. These fresh human peripheral blood mononuclear cell assays use fresh human cells obtained from the American Red Cross from uninfected, normal human donors. Mononuclear cells from these blood samples are isolated by centrifugation and infected with low passage clinical strains of HIV-1 which have been obtained by culture of blood cells from HIV-infected patients with uninfected PBMCs. Since the PBMCs are not killed by HIV infection, endpoint quantification is performed by measurement of virus production in each well by reverse transcriptase assay or p24 ELISA. These assays provide evidence that the test compounds will have efficacy against viruses, which will likely be encountered in patients without genetic changes, introduced by passage in cell culture.
Thus, PBMCs assay measures the amount of virus released from the infected cells into the tissue culture supernatant. The activity of the test compound is measured by its ability to reduce the level of virus production relative to the virus controls (cells+virus with no added compound). In PBMC culture we use reverse transcriptase activity in the supernatant to quantify the amount of virus production from the infected cells. Endpoint quantification is performed at 6 days post-infection.
Fresh human peripheral blood lymphocytes (PBL) are isolated from voluntary Red Cross donors, seronegative for HIV and HBV. Leukophoresed blood is diluted 1:1 with Dulbecco's phosphate buffered saline (PBS), layered over 14 mL of Ficoll-Hypaque density gradient in a 50 mL centrifuge tube. Tubes are then centrifuged for 30 minutes at 600×g. Banded PBLs are gently aspirated from the resulting interface and subsequently washed 2× with PBS by low speed centrifugation. […] After incubation, PBLs are centrifuged and reset in RPMI 1640 with 15% FBS, 2 mM L-glutamine, 100 U/mL. penicillin, 100 ug/mL streptomycin, 10 ug/mL gentamycin, and 20 U/mL recombinant human IL-2. PBLs are maintained in this medium at a concentration of 1-2×10E6/mL with bi-weekly medium changes, until use in assay protocol. For the PBL assay, PHA-P stimulated cells from at least two normal donors are pooled, set in fresh medium at 2×10E6/mL and plated in the interior wells of a 96 well round bottom microplate at 50 μL/well. Test drug dilutions are prepared at a 2× concentration in microtiter tubes and 100 μL of each concentration is placed in appropriate wells in a standard format. 50 μL of a predetermined dilution of virus stock is placed in each test well. Wells with cells and virus alone are used for virus control. Separate plates are identically set without virus for drug cytotoxicity studies using an XTT assay system.
In the standard PBL assay (MOI: 0.2), the assay was ended on day 7 following collection of cell free supernatant samples for reverse transcriptase activity assay. In the low MOI PBL assay (MOI: 0.02), supernatant samples were collected on day 6, day 11, and day 14 post-infection and analyzed for RT activity.

PBMCs = assay: Toxicity to PBMC, XTT; assay type: cell-based, human
CEM-SS cells = assay type: cell-based; conditions: CEM-SS
HIV-1 [2] = conditions: CEM-SS, HIV1 RF
Experimental: This is a cytoprotection assay that uses the T-lymphoblastoid tumor cell line CEM-SS and laboratory adapted strains of HIV-1. Upon infection with HIV, the CEM-SS cells form syncytia and eventually die, producing large amounts of progeny virus over the course of 4-6 days at the standard multiplicity of infection (0.01). The antiviral assay measures the ability of a given compound to inhibit the HIV-induced cell killing. […] The activity of the compound is evaluated by measuring cell viability at 6 days post-infection and comparing the viability to that obtained in cell control (cells only), virus control (cells and virus only) and toxicity control (cells and compound only) wells.
Efficacy of the compound in cell culture is measured by increased cell viability in CEM-SS assays or reduction in virus production in PBMC assays. The data obtained yields a dose response curve which can be evaluated to determine doses which yield 25%, 50% and 95% protection from HIV-induced cell killing or virus production. […] These concentrations are reported as the TC25, TC50 and TC95 values. The ratio of toxicity to efficacy constitutes the therapeutic index TC50/IC50.
CEM-SS cells assay measures the ability of the compound to inhibit HIV induced cell killing. The cells are stained at 6 days post-infection with the tetrazolium dye XTT which is converted to a colored formazan product by the mitochondria of viable cells. Protection from cell killing afforded by the test compound is measured by comparison to both cell controls and virus controls. Cell killing in this system is directly related to the amount of virus produced by the infected cells and XTT-formazan production is proportional to the number of viable cells in each well. Toxicity of the compound to the target cells is measured in parallel.
CEM-SS cells (or other established human cell line used in these experiments) were passaged in T-150 flasks for use in the assay. On the day preceding the assay, the cells were split 1:2 to assure they would be in an exponential growth phase at time of infection. On the day of assay the cells were washed twice with tissue culture medium and resuspended in fresh tissue culture medium. Total cell and viability counting was performed using hemacytometer and trypan blue dye exclusion. Cell viability was greater than 95% for the cells to be utilized in the assay. The cells were pelleted and resuspended at 2.5×10^4 cells per ml in tissue culture medium. Cells were added to the drug-containing plates in a volume of 50 μl.
A pretitered aliquot of virus was removed from the freezer (−80° C.) and allowed to thaw slowly to room temperature in a biological safety cabinet. The virus was resuspended and diluted into tissue culture medium such that the amount of virus added to each well in a volume of 50 μl will be the amount determined to give complete cell killing at 6 days post-infection. In general the virus pools produced with the IIIB isolate of HIV required the addition of 5 μl of virus per well.
Each plate contained cell control wells (cells only), virus control wells (cells plus virus), drug toxicity control wells (cells plus drug only), drug colorimetric control wells (drug only) as well as experimental wells (drug plus cells plus virus).
After 6 days of incubation at 37° C. in a 5% CO2 incubator the test plates were analyzed by staining with the tetrazolium dye XTT. XTT-tetrazolium is metabolized by the mitochondrial enzymes of metabolically active cells to a soluble formazan product, allowing the rapid quantitative analysis of the inhibition of HIV-induced cell killing by anti-HIV test substances. On day 6 post-infection plates were removed from the incubator and observed.

[3] = tested on: Escherichia coli ATCC 11229; assay: Microdilution broth MIC assay; assay type: cell-based; conditions: ATCC11229, Ec, Mueller Hinton broth, about 17 hr
Experimental: (§1) Test organisms. The test organisms are listed in Table 5 along with their source. Prior to assay, overnight bacterial slant cultures were used to inoculate Mueller Hinton broth followed by incubation for 5-7 hr. Each culture was then standardized turbidimetrically to a viable count of about 10^6 colony forming units/ml and used to inoculate the mirotiter assay plates. The viable count after addition to the plates was about 5×10^5 CFU/ml.
(§2) Experimental design. The MIC of the test compounds for the bacterial strains was determined with a microdilution broth assay in 96 well microtiter plates. The test compounds were dissolved in DMSO and then diluted 10-fold in assay medium (Mueller Hinton broth) to obtain final concentrations of 0.128, 1.28, 12.8, and 128 μg/ml. A viability control containing DMSO, diluted in the same manner as the test compounds, was used to confirm that the DMSO was not inhibitory by itself. Trimethoprim (TMP) was used as a positive drug control. The assay plates were incubated at 37° C. for about 17 hr and each assay well observed visually for growth. The MIC was determined at the lowest concentration of drug which inhibited growth. [drawing 32]

[4] = tested on: Klebsiella pneumoniae ATCC 4352; assay: Microdilution broth MIC assay; assay type: cell-based; conditions: ATCC4352, Kp, Mueller Hinton broth, about 17 hr
Experimental: as §1, §2

[5] = tested on: Proteus mirabilis ATCC 9921; assay: Microdilution broth MIC assay; assay type: cell-based; conditions: ATCC9921, Pm, Mueller Hinton broth, about 17 hr
Experimental: as §1, §2

[6] = tested on: Pseudomonas aeruginosa ATCC 15442; assay: Microdilution broth MIC assay; assay type: cell-based; conditions: ATCC15442, Pa, Mueller Hinton broth, about 17 hr
Experimental: as §1, §2

[7] = tested on: Staphylococcus aureus ATCC 6538; assay: Microdilution broth MIC assay; assay type: cell-based; conditions: ATCC6538, Sa, Mueller Hinton broth, about 17 hr
Experimental: as §1, §2

[8] = tested on: Staphylococcus epidermidis ATCC 35984; assay: Microdilution broth MIC assay; assay type: cell-based; conditions: ATCC35984, Se, Mueller Hinton broth, about 17 hr
Experimental: as §1, §2

[9] = tested on: Streptococcus pneumoniae ATCC 6303; assay: Microdilution broth MIC assay; assay type: cell-based; conditions: ATCC6303, Sp, Mueller Hinton broth, about 17 hr
Experimental: as §1, §2

Cc1cn([C@H]2C[C@H](N=[N+]=[N-])[C@@H](CO)O2)c(=O)[nH]c1=O [AZT, reference compound]
RT ACTIVITY % VC (HIV-1 [1]; 0.0013 μM): 104.6% | RT ACTIVITY MEAN (HIV-1 [1]; 0.0013 μM): 7531.7 cpm | RT ACTIVITY % VC (HIV-1 [1]; 0.013 μM): 77.3% | RT ACTIVITY MEAN (HIV-1 [1]; 0.013 μM): 5566.3 cpm | RT ACTIVITY % VC (HIV-1 [1]; 0.04 μM): 81.7% | RT ACTIVITY MEAN (HIV-1 [1]; 0.04 μM): 5880.0 cpm | RT ACTIVITY % VC (HIV-1 [1]; 0.13 μM): 32.3% | RT ACTIVITY MEAN (HIV-1 [1]; 0.13 μM): 2397.0 cpm | RT ACTIVITY % VC (HIV-1 [1]; 0.4 μM): 3.8% | RT ACTIVITY MEAN (HIV-1 [1]; 0.4 μM): 274.0 cpm | RT ACTIVITY % VC (HIV-1 [1]; 1.3 μM): 8.8% | RT ACTIVITY MEAN (HIV-1 [1]; 1.3 μM): 88.0 cpm | RT ACTIVITY % VC (HIV-1 [1]; 4 μM): 0.7% | RT ACTIVITY MEAN (HIV-1 [1]; 4 μM): 48.3 cpm | pIC50 (HIV-1 [1]; RT activity, read-out: IC50): 7.00 | CC50 (PBMCs): > 4000 nM

Nc1ccn([C@H]2CC[C@@H](CO)O2)c(=O)n1 [DDC, di-deoxycytosine, reference compound]
% CELL VIABILITY (CEM-SS cells; 0.00003 μM): 100% | CYTOTOXICITY TEST VALUES MEAN O.D. (CEM-SS cells; 0.00003 μM): 1.496 O.D. | % CELL VIABILITY (CEM-SS cells; 0.0001 μM): 93% | CYTOTOXICITY TEST VALUES MEAN O.D. (CEM-SS cells; 0.0001 μM): 1.346 O.D. | % CELL VIABILITY (CEM-SS cells; 0.00032 μM): 99% | CYTOTOXICITY TEST VALUES MEAN O.D. (CEM-SS cells; 0.00032 μM): 1.428 O.D. | % CELL VIABILITY (CEM-SS cells; 0.001 μM): 100% | CYTOTOXICITY TEST VALUES MEAN O.D. (CEM-SS cells; 0.001 μM): 1.476 O.D. | % CELL VIABILITY (CEM-SS cells; 0.0032 μM): 100% | CYTOTOXICITY TEST VALUES MEAN O.D. (CEM-SS cells; 0.0032 μM): 1.450 O.D. | % CELL VIABILITY (CEM-SS cells; 0.01 μM): 100% | CYTOTOXICITY TEST VALUES MEAN O.D. (CEM-SS cells; 0.01 μM): 1.550 O.D. | % CELL VIABILITY (CEM-SS cells; 0.032 μM): 100% | CYTOTOXICITY TEST VALUES MEAN O.D. (CEM-SS cells; 0.032 μM): 1.658 O.D. | % CELL VIABILITY (CEM-SS cells; 0.1 μM): 96% | CYTOTOXICITY TEST VALUES MEAN O.D. (CEM-SS cells; 0.1 μM): 1.391 O.D. | % CELL VIABILITY (CEM-SS cells; 0.32 μM): 97% | CYTOTOXICITY TEST VALUES MEAN O.D. (CEM-SS cells; 0.32 μM): 1.400 O.D. | % CELL VIABILITY (CEM-SS cells; 1 μM): 100% | CYTOTOXICITY TEST VALUES MEAN O.D. (CEM-SS cells; 1 μM): 1.469 O.D. | % CELL VIABILITY (CEM-SS cells; 3.2 μM): 100% | CYTOTOXICITY TEST VALUES MEAN O.D. (CEM-SS cells; 3.2 μM): 1.826 O.D. | % CELL VIABILITY (CEM-SS cells; 10 μM): 100% | CYTOTOXICITY TEST VALUES MEAN O.D. (CEM-SS cells; 10 μM): 2.064 O.D. | TC 25% (CEM-SS cells; XTT): >10.00 CM | TC 50% (CEM-SS cells; XTT): >10.00 CM | TC 95% (CEM-SS cells; XTT): >10.00 CM | % RED. IN VIRAL CPE (HIV-1 [2]; 0.00003 μM): 1% | ANTIVIRAL TEST VALUES MEAN O.D. (HIV-1 [2]; 0.00003 μM): 0.014 O.D. | % RED. IN VIRAL CPE (HIV-1 [2]; 0.0001 μM): 5% | ANTIVIRAL TEST VALUES MEAN O.D. (HIV-1 [2]; 0.0001 μM): 0.062 O.D. | % RED. IN VIRAL CPE (HIV-1 [2]; 0.00032 μM): 6% | ANTIVIRAL TEST VALUES MEAN O.D. (HIV-1 [2]; 0.00032 μM): 0.080 O.D. | % RED. IN VIRAL CPE (HIV-1 [2]; 0.001 μM): 4% | ANTIVIRAL TEST VALUES MEAN O.D. (HIV-1 [2]; 0.001 μM): 0.057 O.D. | % RED. IN VIRAL CPE (HIV-1 [2]; 0.0032 μM): 8% | ANTIVIRAL TEST VALUES MEAN O.D. (HIV-1 [2]; 0.0032 μM): 0.109 O.D. | % RED. IN VIRAL CPE (HIV-1 [2]; 0.01 μM): 9% | ANTIVIRAL TEST VALUES MEAN O.D. (HIV-1 [2]; 0.01 μM): 0.119 O.D. | % RED. IN VIRAL CPE (HIV-1 [2]; 0.032 μM): 75% | ANTIVIRAL TEST VALUES MEAN O.D. (HIV-1 [2]; 0.032 μM): 1.019 O.D. | % RED. IN VIRAL CPE (HIV-1 [2]; 0.1 μM): 81% | ANTIVIRAL TEST VALUES MEAN O.D. (HIV-1 [2]; 0.1 μM): 1.099 O.D. | % RED. IN VIRAL CPE (HIV-1 [2]; 0.32 μM): 92% | ANTIVIRAL TEST VALUES MEAN O.D. (HIV-1 [2]; 0.32 μM): 1.246 O.D. | % RED. IN VIRAL CPE (HIV-1 [2]; 1 μM): 86% | ANTIVIRAL TEST VALUES MEAN O.D. (HIV-1 [2]; 1 μM): 1.166 O.D. | % RED. IN VIRAL CPE (HIV-1 [2]; 3.2 μM): 100% | ANTIVIRAL TEST VALUES MEAN O.D. (HIV-1 [2]; 3.2 μM): 1.754 O.D. | % RED. IN VIRAL CPE (HIV-1 [2]; 10 μM): 100% | ANTIVIRAL TEST VALUES MEAN O.D. (HIV-1 [2]; 10 μM): 1.687 O.D. | IC 25% (HIV-1 [2]): 0.01 CM | IC 95% (HIV-1 [2]): 2.11 CM

COc1cc(Cc2cnc(N)nc2N)cc(OC)c1OC [TMP, Trimethoprim, reference compound]
MIC [3]: 0.064 to 0.64 µg/mL (≈ 0.22 to 2.2 µM) | MIC [4]: 0.064 to 0.64 µg/mL (≈ 0.22 to 2.2 µM) | MIC [5]: 0.64 to 6.4 µg/mL (≈ 2.2 to 22 µM) | MIC [6]: > 64 µg/mL | MIC [7]: 0.064 to 0.64 µg/mL (≈ 0.22 to 2.2 µM) | MIC [8]: > 64 µg/mL | MIC [9]: 0.64 to 6.4 µg/mL (≈ 2.2 to 22 µM)
